From US20060063839A1, “Inhibitors of decrease in body temperature” (AJINOMOTO CO., INC., priority 2003, published 2006)

Assays:
Assay type in all cases: in vivo, rat
[1] = tested on: rats under propofol anesthesia; test: Measurement 1 of inhibiting effect of decrease in body temperature (rectal temperature, propofol anesthesia); conditions: for variation of body temperature in 3 hours after administering the anesthesia solution to that before administration: average; for inhibiting effect of decrease in body temperature (core temperature), in words: summary of Table 2
Experimental: A catheter was inserted into an external jugular vein of each of rats used in the evaluation in advance and a tip of the catheter was […] from their backs and locked with heparin. […] Then, 42 mL/kg thereof were continuously administered for 1 hour simultaneously with the start of administration of the anesthesia agent. Numbers of each group were set to 4 to 6. As for the administration of the anesthesia agent, 15 mg/kg thereof was intravenously administered through the catheter with bolus method at the beginning. […] As for the measurement of the body temperature, a former value was measured with a rectal thermometer before administering amino acid solutions, and values were measured at 30-minute intervals from the start of administration of the anesthesia agent until 3 hours after the end thereof. The measurement results were calculated as variations (value before administration-value after administration) of values in 3 hours after administering the anesthesia solution to those before administration and represented with average ± standard deviation. As for a statistical test, comparison between two groups with the normal saline solution was conducted using student t-test.

[2] = tested on: rats under propofol anesthesia; test: Measurement 2 of inhibiting effect of decrease in body temperature: timing of valine administration (Groups A to D)
Experimental: Examination was conducted on whether differences of the inhibiting effect of decrease in body temperature of valine were shown depending on difference of timings of administration (following A to D). A catheter was inserted into an outward jugular vein of each of rats (7 to 8 weeks age) used in the evaluation in advance and a tip of the catheter was exserted from their backs and locked with heparin. The rats were recovered for a few days in the status quo. Valine was administered through the catheter with the following four methods:
A: for 2 hours before the start of administration of propofol
B: for 1 hour before the start of administration of propofol+1 hour after the start of administration of propofol
C: for 2 hours simultaneously with the start of administration of propofol
D: for 2 hours starting from 1 hour after the start of administration of propofol. 105 mg/kg of valine containing 10.5 mL/kg of 1% valine solution was administered to Group A eight times at 15-minute intervals. 105 mg/kg of valine containing 10.5 mL/kg of 1% valine solution was administered to Group B four times at 15-minute intervals and then continuously administered for 1 hour in 420 mg/kg/hr containing 42 mL/kg of 1% valine solution. Valine was continuously administered to Groups C and D for 2 hours in 420 mg/kg/hr containing 42 mL/kg of 1% valine solution. Each group (n=8 to 9) was administered the same total dose of valine. 15 mg/kg of a propofol anesthesia agent was administered through the catheter at the beginning and, after induction of anesthesia, it was continuously administered for 3 hours in 33.75 mg/kg/hr.

[3] = tested on: rats with celiotomy invasion under propofol anesthesia; test: Body temperature at the end of anesthesia in the celiotomy invasion experiment; conditions: valine-administered group, n=6
Experimental: (§1) The examination was practiced with three groups of a normal group, a valine-administered group and an objective group. A catheter was inserted into an external jugular vein of each of rats (7 to 8 weeks age) used in the evaluation in advance and a tip of the catheter was exserted from their backs and locked with heparin. The rats were recovered for a few days in the status quo. 105 mg/kg of valine (5.25 mL/kg of 2 W/V % of valine solution) was administered through the inserted catheter to the valine-administered group (n=6) four times at 15-minute intervals from 60 minutes before the start of administration of a propofol anesthesia agent. Then, valine was continuously administered for 1 hour in 420 mg/kg/hr (21 mL/kg of 2 W/V % valine solution) simultaneously with the start of administration of the propofol anesthesia agent. A normal saline solution was administered instead of valine to the objective group (n=6). 15 mg/kg of the propofol anesthesia agent was introduced to be administered through the catheter at the beginning, and continuously administered for 3 hours in 33.75 mg/kg/hr. The celiotomy invasion was conducted by opening the abodominals of the rats simultaneously with the administration of the anesthesia, exteriorizing their appendixes from the abdominal cavities, putting them back again at once and suturing the abdominals. The catheter was not inserted to the normal group. […]

[4] = tested on: peripheral mononuclear blood cells (PBMC) TNF-α production; test: Effect on production of peripheral mononuclear blood cell TNF-α (PBMC taken after anesthesia and celiotomy, LPS stimulation, ELISA); conditions: PBMC incubated with 1 μg/mL LPS for 24 hours; valine 4 x 105 mg/kg then 420 mg/kg/hr for 1 hour; n=6
Experimental: as §1

[5] = tested on: rats with surgical invasion under propofol anesthesia; test: Effect on recovery from operative invasion (abdominal surgery under propofol anesthesia; body temperature and survival)
Experimental: A catheter was inserted into an external jugular vein of each of rats (7 weeks age) used in the evaluation in advance and a tip of the catheter was exserted from their backs and locked with heparin. The rats were recovered for a few days in the status quo. 105 mg/kg of valine (5.25 mL/kg of 2 W/V % of valine solution) was administered through the catheter to a valine-administered group four times at 15-minute intervals from 60 minutes before the start of administration of a propofol anesthesia agent. Then, valine was continuously administered for 5 hours in 420 mg/kg/hr (21 mL/kg of 2 W/V % valine solution) simultaneously with the start of administration of the propofol anesthesia agent. A normal saline solution was administered instead of a valine solution to an objective group. As for the administration of the propofol anesthesia agent, 15 mg/kg thereof was intravenously administered through the catheter with bolus method at the beginning. Soon after that, the agent was started to be continuously administered in 45 mg/kg/hr. 1 hour later, the administration speed was changed to 33.75 mg/kg/hr and continuous administration was conducted for 5 hours. Numbers of each group were set to 8. As for surgical invasion, abdominals of the rats were opened after the bolus anesthesia, their appendixes were exteriorized from their abdominal cavities and exposed in the air for 30 minutes. Then, their appendixes were put back to their abdominal cavities and sutured. As for the measurement of the body temperatures, a former value was measured with a rectal thermometer before administering the amino acids, and the value was measured again in 3 hours after the administration of propofol. The results were shown as the decreased temperature to Pre value. Survival rates were calculated from number of survivors in 24 hours from the start of the experiment.

[6] = 0.1% solution i.v. (4 x 10.5 mL/kg before, 42 mL/kg during 1 h of propofol)
[7] = 1% solution i.v. (4 x 10.5 mL/kg before, 42 mL/kg during 1 h of propofol)
[8] = Group A: valine for 2 hours before the start of propofol
[9] = Group B: valine for 1 hour before + 1 hour after the start of propofol
[10] = Group C: valine for 2 hours simultaneously with the start of propofol
[11] = Group D: valine for 2 hours starting 1 hour after the start of propofol

Row | SMILES | variation of body temperature in 3 hours after administering the anesthesia solution to that before administration [1, 6] | variation of body temperature in 3 hours after administering the anesthesia solution to that before administration [1, 7] | inhibiting effect of decrease in body temperature (core temperature), in words [1] | decrease in body temperature from the time before administration until the end of the anesthesia [2, 8] | increase in body temperature from the end of administration of the anesthesia until 1 hour after [2, 8] | decrease in body temperature from the time before administration until the end of the anesthesia [2, 9] | increase in body temperature from the end of administration of the anesthesia until 1 hour after [2, 9] | decrease in body temperature from the time before administration until the end of the anesthesia [2, 10] | increase in body temperature from the end of administration of the anesthesia until 1 hour after [2, 10] | decrease in body temperature from the time before administration until the end of the anesthesia [2, 11] | increase in body temperature from the end of administration of the anesthesia until 1 hour after [2, 11] | inhibiting effect of decrease in body temperature, in words [2, 11] | body temperature at the end of the administration of the anesthesia [3] | production quantity of TNF-α [4] | inhibition of the decrease in body temperature versus the objective (saline) group ([5]; 3 hours after administration of propofol) | decrease in body temperature to Pre value ([5]; 3 hours after administration of propofol, valine 4 x 105 mg/kg then 420 mg/kg/hr for 5 hours, n=8) | survival rate after one day ([5]; 24 hours from the start of the experiment, n=8)
1 | N[C@@H](CC(=O)O)C(=O)O [Asparatic Acid, asparatic acid] | −6.4 °C | −4.5 °C | inhibiting effect of decrease in body temperature (core temperature) was shown |  |  |  |  |  |  |  |  |  |  |  |  |  | 
2 | N[C@@H](CS)C(=O)O [Cystein, cystein] | −6.3 °C | −4.8 °C | inhibiting effect of decrease in body temperature (core temperature) was shown |  |  |  |  |  |  |  |  |  |  |  |  |  | 
3 | NCC(=O)O [Glycine, glycine] | −6.4 °C | −6.1 °C | inhibiting effect of decrease in body temperature (core temperature) was shown |  |  |  |  |  |  |  |  |  |  |  |  |  | 
4 | CC(C)[C@H](N)C(=O)O [Valine, valine] | −4.8 °C | −4.0 °C | inhibiting effect of decrease in body temperature (core temperature) was shown | 6.1±1.9 °C | 1.1±0.5 °C | 4.3±1.2 °C | 2.0±1.2 °C | 6.1±1.4 °C | 2.0±0.9 °C | 6.9±1.0 °C | 1.0±0.6 °C | inhibiting effect of decrease in body temperature was not shown | 31.2±0.8 °C | 1389.8±415.8 pg/1×10^6 cells | 1.19 °C | 7.83±0.87 °C | 87.5%
